In ChEMBL document CHEMBL3804811 (J Med Chem, 2016):
Values after ≈ are worked out from the molar mass of the structure shown.

How the values were obtained:
[1] = AUC (infinity) in Harlan nu/nu mouse at 10 mg/kg, iv administered as single dose by LC-MS/MS analysis; format: ADME, organism-based; set-up: dose 10 mg/kg, time infinity, route intravenous; details: in vivo
Insulin receptor = Insulin receptor (Homo sapiens, UniProt P06213); test: Inhibition of IR (unknown origin) in presence of gamma33-ATP
Chain of Insulin receptor (P06213 28-758 limits assumed): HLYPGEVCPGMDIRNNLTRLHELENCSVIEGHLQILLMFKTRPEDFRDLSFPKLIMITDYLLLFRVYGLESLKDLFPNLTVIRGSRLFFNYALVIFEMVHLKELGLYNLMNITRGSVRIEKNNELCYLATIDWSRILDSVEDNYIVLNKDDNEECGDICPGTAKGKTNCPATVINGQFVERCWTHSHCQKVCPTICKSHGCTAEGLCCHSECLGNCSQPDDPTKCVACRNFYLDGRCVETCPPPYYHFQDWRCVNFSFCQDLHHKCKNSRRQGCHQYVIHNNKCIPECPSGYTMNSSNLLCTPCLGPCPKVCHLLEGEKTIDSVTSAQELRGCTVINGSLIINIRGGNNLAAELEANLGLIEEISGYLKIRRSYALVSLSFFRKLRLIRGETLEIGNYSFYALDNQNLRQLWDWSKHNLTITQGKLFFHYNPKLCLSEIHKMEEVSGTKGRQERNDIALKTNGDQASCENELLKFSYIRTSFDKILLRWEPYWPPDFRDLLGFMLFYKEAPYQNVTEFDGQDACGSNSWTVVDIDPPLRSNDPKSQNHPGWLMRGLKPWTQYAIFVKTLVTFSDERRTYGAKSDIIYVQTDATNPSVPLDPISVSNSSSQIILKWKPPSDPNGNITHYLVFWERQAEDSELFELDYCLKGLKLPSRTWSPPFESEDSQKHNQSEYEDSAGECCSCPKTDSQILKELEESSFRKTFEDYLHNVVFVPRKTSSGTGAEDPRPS
Chain of Insulin receptor (P06213 763-1382 limits assumed): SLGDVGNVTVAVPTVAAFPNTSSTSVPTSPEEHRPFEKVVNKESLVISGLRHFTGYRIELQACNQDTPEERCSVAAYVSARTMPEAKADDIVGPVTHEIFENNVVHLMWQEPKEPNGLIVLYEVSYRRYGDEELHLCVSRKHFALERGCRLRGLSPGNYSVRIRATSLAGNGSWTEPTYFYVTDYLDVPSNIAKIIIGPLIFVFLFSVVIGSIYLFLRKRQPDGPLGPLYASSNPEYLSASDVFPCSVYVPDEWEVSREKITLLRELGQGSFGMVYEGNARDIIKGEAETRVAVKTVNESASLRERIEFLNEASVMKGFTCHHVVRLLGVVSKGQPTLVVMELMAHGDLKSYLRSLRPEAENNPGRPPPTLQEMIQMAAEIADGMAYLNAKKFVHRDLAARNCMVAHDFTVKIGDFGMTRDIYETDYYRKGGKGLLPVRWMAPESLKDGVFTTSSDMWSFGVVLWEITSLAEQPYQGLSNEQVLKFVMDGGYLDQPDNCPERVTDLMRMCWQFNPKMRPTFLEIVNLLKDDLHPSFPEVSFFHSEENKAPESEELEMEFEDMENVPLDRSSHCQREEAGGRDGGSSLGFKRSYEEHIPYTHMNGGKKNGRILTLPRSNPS

[2] = Clearance in Harlan nu/nu mouse at 10 mg/kg, iv administered as single dose by LC-MS/MS analysis; format: ADME, organism-based; details: in vivo
[3] = Half life in Harlan nu/nu mouse at 10 mg/kg, po administered as single dose by LC-MS/MS analysis; format: ADME, organism-based; details: in vivo
[4] = Apparent permeability from basolateral to apical side in human Caco2 cells at 2.5 mg/ml after 2 hrs by reversed-phase HPLC method; format: ADME, cell-based; details: Caco-2
[5] = Tmax in Harlan nu/nu mouse at 10 mg/kg, po administered as single dose by LC-MS/MS analysis; format: ADME, organism-based; details: in vivo
[6] = molecular target: ALK tyrosine kinase receptor (Homo sapiens, UniProt Q9UM73)
Chain of ALK tyrosine kinase receptor (Q9UM73 whole entry): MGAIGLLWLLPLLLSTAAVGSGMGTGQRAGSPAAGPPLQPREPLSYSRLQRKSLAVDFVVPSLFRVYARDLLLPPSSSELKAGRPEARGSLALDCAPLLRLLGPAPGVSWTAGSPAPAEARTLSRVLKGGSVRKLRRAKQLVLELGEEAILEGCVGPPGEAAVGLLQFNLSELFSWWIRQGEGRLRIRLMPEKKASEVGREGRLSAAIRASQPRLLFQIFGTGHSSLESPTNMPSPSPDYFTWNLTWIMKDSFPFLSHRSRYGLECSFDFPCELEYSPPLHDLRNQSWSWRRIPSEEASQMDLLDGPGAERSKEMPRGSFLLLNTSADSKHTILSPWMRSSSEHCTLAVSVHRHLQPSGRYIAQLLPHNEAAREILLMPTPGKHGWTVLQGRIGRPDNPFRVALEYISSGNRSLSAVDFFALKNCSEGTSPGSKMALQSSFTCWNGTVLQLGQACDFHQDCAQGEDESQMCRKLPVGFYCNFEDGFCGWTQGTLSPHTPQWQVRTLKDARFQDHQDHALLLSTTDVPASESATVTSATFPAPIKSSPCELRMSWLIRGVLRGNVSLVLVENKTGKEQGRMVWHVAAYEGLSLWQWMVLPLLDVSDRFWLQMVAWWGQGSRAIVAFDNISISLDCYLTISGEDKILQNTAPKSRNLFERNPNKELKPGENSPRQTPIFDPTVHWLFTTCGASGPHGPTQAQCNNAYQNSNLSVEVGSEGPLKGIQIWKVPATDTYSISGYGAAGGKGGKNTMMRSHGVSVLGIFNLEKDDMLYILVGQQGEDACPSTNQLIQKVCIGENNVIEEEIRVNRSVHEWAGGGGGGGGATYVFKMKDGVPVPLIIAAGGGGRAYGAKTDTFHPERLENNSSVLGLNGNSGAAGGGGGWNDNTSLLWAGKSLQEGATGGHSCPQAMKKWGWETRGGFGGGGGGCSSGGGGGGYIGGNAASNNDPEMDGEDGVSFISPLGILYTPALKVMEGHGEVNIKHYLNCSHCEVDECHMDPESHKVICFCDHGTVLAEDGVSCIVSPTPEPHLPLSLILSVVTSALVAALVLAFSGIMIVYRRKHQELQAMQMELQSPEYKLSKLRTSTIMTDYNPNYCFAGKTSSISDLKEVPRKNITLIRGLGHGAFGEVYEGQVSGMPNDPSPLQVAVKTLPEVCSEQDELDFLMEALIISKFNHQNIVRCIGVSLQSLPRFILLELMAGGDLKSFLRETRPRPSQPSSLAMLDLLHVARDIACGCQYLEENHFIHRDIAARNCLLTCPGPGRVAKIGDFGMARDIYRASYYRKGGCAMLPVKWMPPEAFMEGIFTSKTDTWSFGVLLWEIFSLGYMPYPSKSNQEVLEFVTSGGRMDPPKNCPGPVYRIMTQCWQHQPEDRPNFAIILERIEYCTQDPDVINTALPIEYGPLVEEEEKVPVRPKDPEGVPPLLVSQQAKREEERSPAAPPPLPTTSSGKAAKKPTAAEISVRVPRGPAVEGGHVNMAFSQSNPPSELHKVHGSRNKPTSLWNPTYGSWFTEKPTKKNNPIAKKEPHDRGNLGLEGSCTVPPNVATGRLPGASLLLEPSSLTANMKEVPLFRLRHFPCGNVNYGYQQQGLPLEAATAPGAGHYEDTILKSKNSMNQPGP
Description: Inhibition of recombinant ALK (unknown origin) in presence of gamma33-ATP

[7] = Cmax in Harlan nu/nu mouse at 10 mg/kg, iv administered as single dose by LC-MS/MS analysis; format: ADME, organism-based; set-up: dose 10 mg/kg, route intravenous; details: in vivo
[8] = Apparent permeability from apical to basolateral side in human Caco2 cells at 2.5 mg/ml after 2 hrs by reversed-phase HPLC method; format: ADME, cell-based; details: Caco-2
[9] = Cmax in Harlan nu/nu mouse at 10 mg/kg, po administered as single dose by LC-MS/MS analysis; format: ADME, organism-based; set-up: dose 10 mg/kg, route oral; details: in vivo
[10] = Oral bioavailability in Harlan nu/nu mouse at 10 mg/kg administered as single dose by LC-MS/MS analysis; format: ADME, organism-based; details: in vivo
[11] = Half life in Harlan nu/nu mouse at 10 mg/kg, iv administered as single dose by LC-MS/MS analysis; format: ADME, organism-based; details: in vivo
[12] = Volume of distribution at steady state in Harlan nu/nu mouse at 10 mg/kg, iv administered as single dose by LC-MS/MS analysis; details: in vivo
[13] = Intrinsic clearance in human liver microsomes at […] preincubated for 5 mins followed by NADPH addition measured after 5 to 30 mins by LC-MS/MS analysis; format: ADME; details: read-out: CLH
[14] = AUC (infinity) in Harlan nu/nu mouse at 10 mg/kg, po administered as single dose by LC-MS/MS analysis; format: ADME, organism-based; set-up: dose 10 mg/kg, route oral, time infinity; details: in vivo
[15] = Intrinsic clearance in rat hepatocytes at […] after 10 to 90 mins by LC-MS/MS analysis; format: ADME, cell-based, Hepatocyte; details: read-out: CLH
[16] = Solubility of compound at pH 7 buffer; format: physicochemical
[17] = Antiproliferative activity against human KARPAS299 cells incubated for 72 hrs by cell titer-glo assay; details: KARPAS-299, 72 h

SMILES | AUC(0-inf) [1] [µM·h] | IC50 (Insulin receptor) [nM] | clearance [2] [mL/min/kg] | half-life [3] [h] | Papp B→A at 2 h, 2.5 mg/ml [4] [×10⁻⁶ cm/s] | Tmax [5] [h] | IC50 [6] [nM] | Cmax [7] [µM] | Papp A→B at 2 h, 2.5 mg/ml [8] [×10⁻⁶ cm/s] | Cmax [9] [µM] | bioavailability [10] [%] | half-life [11] [h] | Vd [12] [L/kg] | CLint scaled [13] [mL/min/kg] | AUC(0-inf) [14] [µM·h] | CLint scaled [15] [mL/min/kg] | solubility [16] [µM] | IC50 [17] [nM]
O=C(Nc1n[nH]c2ccc(Cc3cc(F)cc(F)c3)cc12)c1ccc(CN2CCCCC2)cc1NC1CCOCC1 | 7.97 | 653 | 32.1 | 2.25 | 1.9 | 0.83 | 18 | 5.69 | 1.1 | 0.36 | 18 | 1.52 | 2.63 | 40 | 1.51 | 229 | 84 (≈ 47 µg/mL) | 38
CN1CCN(c2ccc(C(=O)Nc3n[nH]c4ccc(Cc5cc(F)cc(F)c5)cc34)c(N[C@H]3CC[C@H](O)CC3)c2)CC1 | 13.1 | 189 | 21.3 | – | 5.1 | 1 | 10 | 7.06 | 1.8 | 0.36 | 7.3 | 3.01 | 3.02 | 25 | 1.25 | 45 | 7 (≈ 4.02 µg/mL) | 68
CN1CCN(c2ccc(C(=O)Nc3n[nH]c4ccc(Cc5ccccc5)cc34)c(NC3CCOCC3)c2)CC1 | – | 1490 | – | – | – | – | 106 | – | – | – | – | – | – | – | – | – | – | 182
CN1CCN(c2ccc(C(=O)Nc3n[nH]c4ccc(Cc5cc(F)cc(F)c5)cc34)c(NCCO)c2)CC1 | – | 906 | – | – | – | – | 26 | – | – | – | – | – | – | – | – | – | – | 118
CN1CCN(c2ccc(C(=O)Nc3n[nH]c4ccc(Cc5cccc(F)c5)cc34)c(NC3CCOCC3)c2)CC1 | – | 427 | – | – | – | – | 30 | – | – | – | – | – | – | – | – | – | – | 18
CN1CCC(Oc2ccc(C(=O)Nc3n[nH]c4ccc(Cc5cc(F)cc(F)c5)cc34)c(NC3CCOCC3)c2)CC1 | 33.1 | 196 | 8.16 | 4.08 | 2 | 6 | 9 | 6.93 | 0.3 | 0.8 | 29.3 | 4.94 | 2.62 | 12 | 11 | 49 | 59 (≈ 34 µg/mL) | 43
CN1CCC(Nc2cc(N3CCN(C)CC3)ccc2C(=O)Nc2n[nH]c3ccc(Cc4cc(F)cc(F)c4)cc23)CC1 | – | 330 | – | – | – | – | 15 | – | 1.5 | – | – | – | – | – | – | – | – | 438
CN1CCN(c2ccc(C(=O)Nc3n[nH]c4ccc(Cc5cc(F)ccc5F)cc34)c(NC3CCOCC3)c2)CC1 | – | 170 | – | – | – | – | 38 | – | – | – | – | – | – | – | – | – | – | 49
C[C@@H](c1cc(F)cc(F)c1)c1ccc2[nH]nc(NC(=O)c3ccc(N4CCN(C)CC4)cc3NC3CCOCC3)c2c1 | – | 189 | – | – | – | – | 19 | – | – | – | – | – | – | – | – | – | – | 16
CN1CCN(c2ccc(C(=O)Nc3n[nH]c4ccc(Cc5cc(F)cc(F)c5)cc34)c(Nc3ccccc3)c2)CC1 | – | 9870 | – | – | – | – | 684 | – | – | – | – | – | – | – | – | – | – | 991
Cc1ccc(F)cc1Cc1ccc2[nH]nc(NC(=O)c3ccc(N4CCN(C)CC4)cc3NC3CCOCC3)c2c1 | – | 823 | – | – | – | – | 181 | – | – | – | – | – | – | – | – | – | – | 851
CN1CCN(c2ccc(C(=O)Nc3n[nH]c4ccc(Cc5cc(F)cc(F)c5)cc34)c(N)c2)CC1 | – | 1300 | – | – | – | – | 67 | – | – | – | – | – | – | – | – | – | – | 214
COCCCNc1cc(N2CCN(C)CC2)ccc1C(=O)Nc1n[nH]c2ccc(Cc3cc(F)cc(F)c3)cc12 | – | 1190 | – | – | – | – | 135 | – | – | – | – | – | – | – | – | – | – | 194
CN1CCN(c2ccc(C(=O)Nc3n[nH]c4ccc(Cc5cc(F)cc(F)c5)cc34)c(NCCF)c2)CC1 | 24.7 | 462 | 11.7 | 9.86 | 1.5 | 4.33 | 14 | 7.58 | 2.4 | 1.88 | 99 | 5.92 | 4.76 | 24 | 31.5 | 18 | 16 (≈ 8.36 µg/mL) | 49
COC[C@@H](C)Nc1cc(N2CCN(C)CC2)ccc1C(=O)Nc1n[nH]c2ccc(Cc3cc(F)cc(F)c3)cc12 | – | 1070 | – | – | – | – | 72 | – | – | – | – | – | – | – | – | – | – | 74
CN1CCN(c2ccc(C(=O)Nc3n[nH]c4ccc(Cc5cc(F)cc(F)c5)cc34)c(N[C@H]3CC[C@@H](O)CC3)c2)CC1 | – | 707 | – | – | – | – | 98 | – | – | – | – | – | – | – | – | – | – | 162

Now from value to compound, other results behind:

AUC(0-inf) [1] [µM·h] | IC50 (Insulin receptor) [nM] | clearance [2] [mL/min/kg] | half-life [3] [h] | Papp B→A at 2 h, 2.5 mg/ml [4] [×10⁻⁶ cm/s] | Tmax [5] [h] | IC50 [6] [nM] | Cmax [7] [µM] | Papp A→B at 2 h, 2.5 mg/ml [8] [×10⁻⁶ cm/s] | Cmax [9] [µM] | bioavailability [10] [%] | half-life [11] [h] | Vd [12] [L/kg] | CLint scaled [13] [mL/min/kg] | AUC(0-inf) [14] [µM·h] | CLint scaled [15] [mL/min/kg] | solubility [16] [µM] | SMILES | IC50 [17] [nM]
42.2 | 41 | 7.01 | 9.63 | 4.5 | 6 | 3 | 40.5 | 0.6 | 0.081 | 2.9 | 4.76 | 1.4 | 7.5 | 1.33 | 52 | 103 (≈ 56.3 µg/mL) | O=C(Nc1n[nH]c2ccc(Cc3cc(F)cc(F)c3)cc12)c1ccc(N2CCNCC2)cc1NC1CCOCC1 | 13
7.86 | 457 | 38.8 | – | 19.8 | – | 15 | 10.3 | 2.7 | – | – | 2.83 | 4.41 | 57 | – | 42 | 51 (≈ 30.1 µg/mL) | CN(C)CCN(C)C(=O)c1ccc(C(=O)Nc2n[nH]c3ccc(Cc4cc(F)cc(F)c4)cc23)c(NC2CCOCC2)c1 | 50
– | 3690 | – | – | – | – | 378 | – | – | – | – | – | – | – | – | – | – | CN1CCN(c2ccc(C(=O)Nc3n[nH]c4ccc(Cc5cc(F)cc(F)c5)cc34)c(NCc3ccccc3)c2)CC1 | 1260
– | 1810 | – | – | – | – | 73 | – | – | – | – | – | – | – | – | – | – | CN1CCN(c2ccc(C(=O)Nc3n[nH]c4ccc(Cc5cc(F)cc(F)c5)cc34)cc2)CC1 | 253
– | 353 | – | – | – | – | 67 | – | – | – | – | – | – | – | – | – | – | CN1CCN(c2ccc(C(=O)Nc3n[nH]c4ccc(Cc5cc(F)cc(F)c5)cc34)c(NCC3CN(C)C3)c2)CC1 | 386
– | 3820 | – | – | – | – | 560 | – | – | – | – | – | – | – | – | – | – | CN1CCN(c2ccc(C(=O)Nc3n[nH]c4ccc(Cc5cc(F)cc(F)c5)cc34)c(NC3CCCCC3)c2)CC1 | 609
– | 1760 | – | – | – | – | 210 | – | – | – | – | – | – | – | – | – | – | COCCNc1cc(N2CCN(C)CC2)ccc1C(=O)Nc1n[nH]c2ccc(Cc3cc(F)cc(F)c3)cc12 | 243
– | 1160 | – | – | – | – | 59 | – | – | – | – | – | – | – | – | – | – | C[C@H](c1cc(F)cc(F)c1)c1ccc2[nH]nc(NC(=O)c3ccc(N4CCN(C)CC4)cc3NC3CCOCC3)c2c1 | 41
– | 1640 | – | – | – | – | 99 | – | – | – | – | – | – | – | – | – | – | COCC(COC)Nc1cc(N2CCN(C)CC2)ccc1C(=O)Nc1n[nH]c2ccc(Cc3cc(F)cc(F)c3)cc12 | 340
